In patent publication US20240000750A1, “METHOD FOR PREPARING CRYSTALLINE PARTICLES OF 1-(3-CYANO-1-ISOPROPYL-INDOLE-5-YL)PYRAZOLE-4-CARBOXYLIC ACID, AND PHARMACEUTICAL COMPOSITION COMPRISING SAME” (LG CHEM, LTD., priority 2020, published 2024):

Columns and labels:
Assay type in all cases: physicochemical
[1] = Particle size distribution of crystalline particles, wet method, laser diffraction particle size analyzer
Method: The volume average particle distribution and particle size distribution of the crystalline particles prepared in Preparation Examples, Examples and Comparative Examples were measured by a wet method using a laser diffraction particle size analyzer.
It can be said that the particle size distribution is better as the values of DV10/DV50 and DV50/DV90 used as indicators are larger. Here, DV10, DV50, and DV90 mean particle diameters of particles corresponding to 10%, 50%, and 90% of the total number of particles, respectively, when the measured particles are arranged in order from smallest to largest in particle size.

[2] = Bulk density and tapped density of crystalline particles (flowability: Carr index, Hausner ratio)
Method: The tapped density and bulk density were analyzed to analyze flowability and cohesiveness. tapped density means the changed volume when the container is tapped after packing the powder, which means that the voids between particles are reduced. In addition, the porosity can be confirmed by checking the changes in bulk density (apparent density) and tapped density. In general, the flowability and cohesiveness of the granular powder were evaluated using Carr index (CI) (Carr, 1965) and Hausner ratio (HR) (Hausner, 1967).
The bulk density and tapped density of crystalline particles prepared according to Preparation Examples, Examples and Comparative Examples were measured. The bulk density is the volume when about 50 g of granular powder is put into the measuring cylinder, and the tapped density is the volume when there is no further change in volume after lightly tapping the measuring cylinder on the floor at a constant height 100 times. The bulk density refers to the volume occupied by a certain mass of powder, which refers to the sum of the volume of the powder and the volume of voids between particles as the total volume.
The flowability and cohesiveness of the granular powder were calculated by the Carr index of Equation (3) and the Hausner ratio of Equation (4) using the bulk density and tapped density measured above according to the method of Jinapong et al (2008). […]

[3] = Solubility in organic solvents and water

| Particle size distribution (in words) [1] | Flowability and cohesiveness (in words) [2] | Solubility [3] | Compound |
| --- | --- | --- | --- |
| very good | very good |  | CC(C)n1cc(C#N)c2cc(-n3cc(C(=O)O)cn3)ccc21 [Synthesis Example 1-4, 1-(3-cyano-1-isopropyl-indol-5-yl)pyrazole-4-carboxylic acid] |
|  |  | very low | CC(C)n1cc(C#N)c2cc(-n3cc(C(=O)O)cn3)ccc21 [compound of Formula 1, 1-(3-cyano-1-isopropyl-indol-5-yl)pyrazole-4-carboxylic acid] |
